From PMC5576918, “Small molecule inhibition of apicomplexan FtsH1 disrupts plastid biogenesis in human pathogens” (eLife, 2017)
Read-outs that look alike come from different tables or passages of the source.

How the values were obtained:
P. falciparum [1] = test: microbe, parasite or virus in culture; parameters: species or system P. falciparum asexual blood stages in human erythrocytes; Blood-stage parasite growth inhibition over two lytic cycles, YOYO-1 parasitemia by flow cytometry; details: Plasmodium falciparum, Erythrocyte, 96 h, read-out: 96h
Description: (§1) For P. falciparum EC50 calculations, growth assays were performed in 96 well plates containing serial dilution of drugs in triplicate. Media was supplemented with 200 uM IPP as indicated. Growth was initiated with ring-stage parasites (synchronized with 5% sorbitol treatment) at 1% parasitemia and 1% hematocrit. […] Parasitized cells were stained with 50 nM YOYO-1 (Invitrogen) overnight at room temperature and the parasitemia was determined by flow cytometry (BD Accuri C6 Sampler). Data were analyzed by BD Accuri C6 Sampler software. […] A single natural product antibiotic, actinonin, matched our criteria (Figure 1a) ([Gordon et al., 1962]). […] Because isoprenoid precursor biosynthesis is the only essential function of the apicoplast in blood-stage P. falciparum, any disruption of the apicoplast, including complete loss of the organelle, can be rescued by addition of the isoprenoid precursor, isopentenyl pyrophosphate (IPP), in the growth media ([Yeh and DeRisi, 2011]). […] Compared to chloramphenicol, actinonin clearly had more rapid antimalarial activity.

P. falciparum [2] = test: microbe, parasite or virus in culture; parameters: species or system P. falciparum asexual blood stages in human erythrocytes; Blood-stage parasite growth inhibition over one lytic cycle, YOYO-1 parasitemia by flow cytometry; details: Plasmodium falciparum, Erythrocyte, 48 h, read-out: 48h
Description: as §1

PfFtsH1 = target: T1, PfFtsH1 (Plasmodium falciparum, UniProt Q8I526); test: ATP-dependent FITC-casein proteolysis by purified recombinant PfFtsH1, fluorescence; type: biochemical
T1 construct: gene PF3D7_1239700; His6-SUMO-PfFtsH1_91-612-GST (AAA+ ATPase and peptidase domains, lacking transmembrane domain)
T1 sequence (Q8I526 entry or part of it): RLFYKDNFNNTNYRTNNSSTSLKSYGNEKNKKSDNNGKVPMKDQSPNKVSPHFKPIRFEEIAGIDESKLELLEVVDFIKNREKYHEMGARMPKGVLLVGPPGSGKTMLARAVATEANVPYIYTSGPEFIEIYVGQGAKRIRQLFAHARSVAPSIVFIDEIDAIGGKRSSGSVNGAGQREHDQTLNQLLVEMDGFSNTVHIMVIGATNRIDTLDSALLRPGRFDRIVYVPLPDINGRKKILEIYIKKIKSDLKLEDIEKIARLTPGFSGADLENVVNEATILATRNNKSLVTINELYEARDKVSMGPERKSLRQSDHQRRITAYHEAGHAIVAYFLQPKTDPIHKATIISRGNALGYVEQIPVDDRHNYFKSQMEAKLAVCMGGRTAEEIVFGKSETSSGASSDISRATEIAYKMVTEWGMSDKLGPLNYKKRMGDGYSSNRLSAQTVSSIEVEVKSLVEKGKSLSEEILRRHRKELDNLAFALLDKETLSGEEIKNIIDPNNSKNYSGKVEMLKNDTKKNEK

**Q.** Nc1ccn([C@@H]2O[C@H](CO)[C@@H](O)[C@H]2F)c(=O)n1 [2'deoxy-2-F-cytidine] was tested. Which EC50 (P. falciparum [1]) did it give?
**A.** > 200 µM

**Q.** And the EC50 (P. falciparum [2])?
**A.** > 200 µM

**Q.** With CCCCC[C@H](CC(N)=O)C(=O)N[C@H](C(=O)N1CCC[C@H]1CO)C(C)C [actinamide] as the molecule, how does the IC50 (PfFtsH1) read?
**A.** 7.3 µM

**Q.** Which results are given for CCCCC[C@H](CC(=O)NO)C(=O)N[C@H](C(=O)N1CCC[C@H]1CO)C(C)C [actinonin]?
**A.** EC50 (P. falciparum [1]): 2.7 µM; EC50 (P. falciparum [2]): 3.2 µM

**Q.** Which results are given for O=C(O)c1cn(C2CC2)c2cc(N3CCNCC3)c(F)cc2c1=O [ciprofloxacin]?
**A.** EC50 (P. falciparum [1]): 6 µM; EC50 (P. falciparum [2]): 24 µM

**Q.** Which EC50 (P. falciparum [1]) does the source give for CCn1cc(C(=O)O)c(=O)c2cc(F)c(N3CCNCC3)nc21 [enoxacin] here?
**A.** 5.7 µM

**Q.** What about the EC50 (P. falciparum [2]) of the same molecule?
**A.** > 50 µM

**Q.** Which results are given for C[C@H]1COc2c(N3CCN(C)CC3)c(F)cc3c(=O)c(C(=O)O)cn1c23 [levofloxacin]?
**A.** EC50 (P. falciparum [1]): 16 µM; EC50 (P. falciparum [2]): 70 µM

**Q.** How did the EC50 (P. falciparum [1]) turn out when CC(C)C(=O)OC[C@H]1O[C@@H](n2ccc(N)nc2=O)[C@](C)(F)[C@@H]1OC(=O)C(C)C [mericitabine] was run?
**A.** > 200 µM

**Q.** What about the EC50 (P. falciparum [2]) of the same molecule?
**A.** > 200 µM

**Q.** Which EC50 (P. falciparum [1]) does the source give for CCn1cc(C(=O)O)c(=O)c2cc(F)c(N3CCNCC3)cc21 [norfloxacin] here?
**A.** 10 µM

**Q.** And the EC50 (P. falciparum [2])?
**A.** 40 µM

**Q.** What does the source list for CO[C@@H]1[C@@H](OC(N)=O)[C@@H](O)[C@H](Oc2ccc3c(O)c(NC(=O)c4ccc(O)c(CC=C(C)C)c4)c(=O)oc3c2C)OC1(C)C [novobiocin]?
**A.** EC50 (P. falciparum [1]): 36 µM; EC50 (P. falciparum [2]): 40 µM

**Q.** Which EC50 (P. falciparum [1]) does the source give for CO[C@H]1/C=C/O[C@@]2(C)Oc3c(C)c(O)c4c(O)c(c(/C=N/N5CCN(C)CC5)c(O)c4c3C2=O)NC(=O)/C(C)=C\C=C\[C@H](C)[C@H](O)[C@@H](C)[C@@H](O)[C@@H](C)[C@H](OC(C)=O)[C@@H]1C [rifampin] here?
**A.** 2 µM

**Q.** What about the EC50 (P. falciparum [2]) of the same molecule?
**A.** 1 µM
